Results from patent US12630563B2, “Macrocyclic RIP2-kinase inhibitors” (Oncodesign S.A., priority 2020, dated 2026).

target: T1, recombinant hRIPK2 protein (kinase domain aa 1-299-His-tagged) (Homo sapiens, UniProt O43353); assay: RIPK2 AlphaLISA assay (displacement of bead-bound CZC-8004 from hRIPK2); format: binding; conditions: recombinant hRIPK2 kinase domain 10 nM, 2 h at 23° C.
T1 construct: kinase domain aa 1-299-His-tagged; purchased Life Technologies PR7829A
Description: RIPK2 AlphaLISA® Assay (Amplified Luminescent Proximity Homogeneous Assay)
A non-specific kinase inhibitor (CZC-8004 Cayman #916603-07-1) bound to an acceptor bead (#6772001 PerkinElmer) was mixed to the recombinant hRIPK2 protein (kinase domain aa 1-299-His-tagged—Life Technologies PR7829A) and a Ni2+-tagged donor beads (#AS101D PerkinElmer). In the presence of an inhibitor, the compound beads displacement from hRIPK2 was followed by signal loss. In a 384-well ProxiPlate@ (Perkin Elmer, 6008280) add:
2 μL RIPK2 inhibitor (in DMSO 0.8%).
2 μL human recombinant RIPK2 (10 nM diluted in AlphaLISA buffer 1×).
4 μL Mix of […] 1/1000 in AlphaLISA buffer 1×.
Homogenize using a microtiter plate shaker and incubate for 2 h at 23° C.
Read using EnVision®-Alpha Reader (PerkinElmer) according to manufacturer specifications.

T1 sequence (O43353 1-299): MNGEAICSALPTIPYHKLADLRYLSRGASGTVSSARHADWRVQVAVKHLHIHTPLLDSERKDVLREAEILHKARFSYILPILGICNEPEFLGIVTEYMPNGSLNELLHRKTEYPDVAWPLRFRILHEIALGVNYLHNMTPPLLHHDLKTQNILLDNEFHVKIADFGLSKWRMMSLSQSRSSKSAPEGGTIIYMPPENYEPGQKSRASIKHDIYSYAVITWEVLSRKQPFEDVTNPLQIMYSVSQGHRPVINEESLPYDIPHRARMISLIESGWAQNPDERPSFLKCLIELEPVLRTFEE

O=C1[C@H](OCC2CC2)C[C@H]2COc3ccn4ncc(c4n3)-c3cc(F)cc(c3)NCCN12 [Example 11, (12R,14S)-12-(cyclopropylmethoxy)-4-fluoro-16-oxa-7,10,20,21,24-pentaazapentacyclo[15.5.2.1^2,6.0^10,^14.0^20,^23]pentacosa-1(23),2(25),3,5,17(24),18,21-heptaen-11-one] and COc1cc2cc(c1)-c1cnn3ccc(nc13)OC[C@@H]1C[C@@H](OCC3CC3)C(=O)N1CCN2 [Example 22, (12R,14S)-12-(cyclopropylmethoxy)-4-methoxy-16-oxa-7,10,20,21,24-pentaazapentacyclo[15.5.2.1^2,6.0^10,^14.0^20,^23]pentacosa-1(23),2(25),3,5,17(24),18,21-heptaen-11-one] cannot be ordered by IC50: under 10 nM for the first, under 10 nM for the second.

CO[C@@H]1C[C@H]2COc3ccn4ncc(c4n3)-c3cc(C#N)cc(c3)NCCN2C1=O [Example 12, (12R,14S)-12-methoxy-11-oxo-16-oxa-7,10,20,21,24-pentaazapentacyclo[15.5.2.1^2,6.0^10,^14.0^20,23]pentacosa-1(23),2,4,6(25),17(24),18,21-heptaene-4-carbonitrile] and CCO[C@@H]1C[C@H]2COc3ccn4ncc(c4n3)-c3cc(C#N)cc(c3)NCCN2C1=O [Example 23, (12R,14S)-12-ethoxy-11-oxo-16-oxa-7,10,20,21,24-pentaazapentacyclo[15.5.2.1^2,6.0^10,^14.0^20,^23]pentacosa-1(23),2,4,6(25),17(24),18,21-heptaene-4-carbonitrile] cannot be ordered by IC50: under 10 nM for the first, under 10 nM for the second.

CO[C@@H]1C[C@H]2COc3ccn4ncc(c4n3)-c3cc(cc(OC(F)F)c3)NCCN2C1=O [Example 13, (12R,14S)-4-(difluoromethoxy)-12-methoxy-16-oxa-7,10,20,21,24-pentaazapentacyclo[15.5.2.1^2,6.0^10,^14.0^20,^23]pentacosa-1(23),2,4,6(25),17(24),18,21-heptaen-11-one] and CO[C@H]1C[C@H]2COc3ccn4ncc(c4n3)-c3cc(F)cc(c3)NCCN2C1=O [Example 25, (12S,14S)-4-fluoro-12-methoxy-16-oxa-7,10,20,21,24-pentaazapentacyclo[15.5.2.1^2,6.0^10,^14.0^20,^23]pentacosa-1(23),2(25),3,5,17(24),18,21-heptaen-11-one] cannot be ordered by IC50: under 10 nM for the first, under 10 nM for the second.

CO[C@@H]1C[C@H]2COc3ccn4ncc(c4n3)-c3cc(cc(OCc4ccccc4)c3)NCCN2C1=O [Example 14, (12R, 14S)-4-(benzyloxy)-12-methoxy-16-oxa-7,10,20,21,24-pentaazapentacyclo[15.5.2.1^2,6.0^10,14.0^20,^23]pentacosa-1(23),2,4,6(25),17(24),18,21-heptaen-11-one] and CCc1cc2cc(c1)-c1cnn3ccc(nc13)OC[C@@H]1C[C@@H](OC)C(=O)N1CCN2 [Example 21, (12R,14S)-4-ethyl-12-methoxy-16-oxa-7,10,20,21,24-pentaazapentacyclo[15.5.2.1^2,6.0^10,^14.0^20,^23]pentacosa-1(23),2,4,6(25),17(24),18,21-heptaen-11-one] fall in the same range of IC50: 10 to 100 nM for the first, 10 to 100 nM for the second.

First: CO[C@@H]1C[C@H]2COc3ccn4ncc(c4n3)-c3cc(cc(F)c3F)NCCN2C1=O [Example 15, (12R,14S)-3,4-difluoro-12-methoxy-16-oxa-7,10,20,21,24-pentaazapentacyclo[15.5.2.1^2,6.0^10,^14.0^20,^23]pentacosa-1(23),2,4,6(25),17(24),18,21-heptaen-11-one]
Second: CO[C@@H]1C[C@H]2COc3ccn4ncc(c4n3)-c3cc(F)c(F)c(c3)NCCN2C1=O [Example 29, (12R,14S)-4,5-difluoro-12-methoxy-16-oxa-7,10,20,21,24-pentaazapentacyclo[15.5.2.1^2,6.0^10,^14.0^20,^23]pentacosa-1(23),2(25),3,5,17(24),18,21-heptaen-11-one]
The IC50 of the first is higher: 10 to 100 nM for the first, under 10 nM for the second.

COc1cc2cc(c1)-c1cnn3ccc(nc13)OC[C@@H]1C[C@@H](OC(C)C)C(=O)N1CCN2 [Example 16, (12R,14S)-4-methoxy-12-(propan-2-yloxy)-16-oxa-7,10,20,21,24-pentaazapentacyclo[15.5.2.1^2,6.0^10,^14.0^20,^23]pentacosa-1(23),2,4,6(25),17(24),18,21-heptaen-11-one] and CCOc1cc2cc(c1)-c1cnn3ccc(nc13)OC[C@@H]1C[C@@H](OCC)C(=O)N1CCN2 [Example 28, (12R,14S)-4,12-diethoxy-16-oxa-7,10,20,21,24-pentaazapentacyclo[15.5.2.1^2,6.0^10,^14.0^20,^23]pentacosa-1(23),2(25),3,5,17(24),18,21-heptaen-11-one] cannot be ordered by IC50: under 10 nM for the first, under 10 nM for the second.

CCO[C@@H]1C[C@H]2COc3ccn4ncc(c4n3)-c3cc(F)cc(c3)NCCN2C1=O [Example 17, (12R,14S)-12-ethoxy-4-fluoro-16-oxa-7,10,20,21,24-pentaazapentacyclo[15.5.2.1^2,6.0^10,^14.0^20,^23]pentacosa-1(23),2,4,6(25),17(24),18,21-heptaen-11-one] and CCO[C@@H]1C[C@H]2COc3ccn4ncc(c4n3)-c3cc(Cl)cc(c3)NCCN2C1=O [Example 20, (12R,14S)-4-chloro-12-ethoxy-16-oxa-7,10,20,21,24-pentaazapentacyclo[15.5.2.1^2,6.0^10,^14.0^20,^23]pentacosa-1(23),2,4,6(25),17(24),18,21-heptaen-11-one] cannot be ordered by IC50: under 10 nM for the first, under 10 nM for the second.

CCO[C@@H]1C[C@H]2COc3nc4c(cnn4cc3C)-c3cc(F)cc(c3)NCCN2C1=O [Example 18, (12R,14S)-12-ethoxy-4-fluoro-18-methyl-16-oxa-7,10,20,21,24-pentaazapentacyclo[15.5.2.1^2,6.0^10,^14.0^20,^23]pentacosa-1(23),2,4,6(25),17(24),18,21-heptaen-11-one] and CO[C@@H]1C[C@H]2COc3nc4c(cnn4cc3C)-c3cc(Cl)cc(c3)NCCN2C1=O [Example 24, (12R,14S)-4-chloro-12-methoxy-18-methyl-16-oxa-7,10,20,21,24-pentaazapentacyclo[15.5.2.1^2,6.0^10,^14.0^20,^23]pentacosa-1(23),2(25),3,5,17(24),18,21-heptaen-11-one] cannot be ordered by IC50: under 10 nM for the first, under 10 nM for the second.

COc1cc2cc(c1)-c1cnn3cc(C)c(nc13)OC[C@@H]1C[C@@H](OC)C(=O)N1CCN2 [Example 19, (12R,14S)-4,12-dimethoxy-18-methyl-16-oxa-7,10,20,21,24-pentaazapentacyclo[15.5.2.1^2,6.0^10,^14.0^20,^23]pentacosa-1(23),2(25),3,5,17(24),18,21-heptaen-11-one] and COc1cc2cc(c1F)NCCN1C(=O)[C@H](OC)C[C@H]1COc1ccn3ncc-2c3n1 [Example 27, (12R,14S)-5-fluoro-4,12-dimethoxy-16-oxa-7,10,20,21,24-pentaazapentacyclo[15.5.2.1^2,6.0^10,^14.0^20,^23]pentacosa-1(23),2,4,6(25),17(24),18,21-heptaen-11-one] cannot be ordered by IC50: under 10 nM for the first, under 10 nM for the second.

O=C1[C@H](F)C[C@H]2COc3ccn4ncc(c4n3)-c3cc(F)cc(c3)NCCN12 [Example 26, (12R,14S)-4,12-difluoro-16-oxa-7,10,20,21,24-pentaazapentacyclo[15.5.2.1^2,6.0^10,^14.0^20,^23]pentacosa-1(23),2,4,6(25),17(24),18,21-heptaen-11-one] showed an IC50 of under 10 nM.
